# Laboratory results reported in the METLIN SMRT retention time set (Domingo-Almenara et al. 2019).
# Test: gradient 5% acetonitrile 3 min, to 50% in 2 min, to 85% in 15 min, held 3 min, 100 µL/min
# Conditions: column: Zorbax Extend-C18 2.1 x 50 mm; eluents: water / acetonitrile, 0.1% formic acid
# Outline: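 Data were gathered over 3 months by HPLC coupled to a quadrupole time-of-flight mass spectrometer, operated in positive and negative ionization mode. Mixtures of ~100 pure standards ran on a Zorbax Extend-C18 column (2.1 × 50 mm, 1.8 μm) at 100 μL/min, with water and acetonitrile each containing 0.1% formic acid and dead and dwell volumes of 40 μL and 900 μL. Retention time was read from adduct peaks picked by computer and checked manually.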
row,RP-LC retention time,Compound
1,639 s,COc1ccc(/C=C/c2nc(NCCCN(C)C)c3ccccc3n2)cc1
2,1100 s,Cc1cccc(C)c1Nc1c(-c2ccc(N3CCOCC3)cc2)nc2cnc(Br)cn12
3,1150 s,CCOc1ccc(-c2nc(Cn3nnc(C(=O)Nc4ccccc4OC)c3C)c(C)o2)cc1
4,963 s,CCOCCOC(=O)c1cn(-c2ccc(OC)cc2)c(=O)c2ccccc12
5,860 s,Cc1ccccc1Nc1c(-c2ccc3c(c2)OCO3)nc2cnccn12
6,694 s,COc1ccc(C2CCCN2C(=O)c2cnn3cccnc23)cc1 (configuration not stated)
7,661 s,CCn1c(CCNC(=O)c2cc(Cl)ccc2F)nc2cccnc21
8,586 s,CCOC(=O)CCC(=O)Nc1cccc2ccc(-n3ccnc3)nc12
9,1110 s,COc1ccc(CN2C=C(C(=O)OCc3noc(-c4ccc(OC)cc4)n3)C(C)=NS2(=O)=O)cc1
10,830 s,COc1ccc(-c2ccc(=O)n(CCCNS(=O)(=O)/C=C/c3ccccc3)n2)cc1
11,917 s,COc1ccc(-c2nc(-c3nnn(-c4ccc(F)cc4)c3C)no2)cc1OC
12,951 s,O=C(Nc1cc(-c2ccsc2)no1)c1cccc(F)c1
13,1140 s,COc1cc(-c2noc(Cn3ncn4nc(-c5cc(C)ccc5C)cc4c3=O)n2)cc(OC)c1OC
14,1040 s,CCOc1ccccc1-c1nn2c(-c3cccnc3)nnc2s1
15,753 s,COCCCNC(=O)C1c2ccccc2C(=O)N1Cc1ccccc1C (configuration not stated)
16,1240 s,Cc1cc(F)ccc1NC(=O)c1c(O)c2cccnc2n(-c2ccc(F)cc2)c1=O
17,783 s,CCc1noc(NC(C)=O)c1-c1ccc(C)c(S(=O)(=O)NCc2cccs2)c1
18,667 s,COc1ccc2[nH]cc(CCNC(=O)c3c(-c4cccnc4)noc3C)c2c1
19,892 s,COc1ccc(-c2nnc(COc3ccc(NC(=O)c4ccsc4)cc3)o2)cc1
20,931 s,CCOC(=O)c1nc(NCc2ccc(F)cc2)c2ccccc2n1
21,846 s,CCOc1ccc(-c2[nH]ncc2CNS(=O)(=O)Cc2ccccc2Cl)cc1
22,1030 s,CC(C)c1noc(-c2cc(=O)n(CC(=O)NCc3cccc(Cl)c3)c3ccccc23)n1

# Continued, molecule first:
row,Compound,RP-LC retention time
1,CC1(C(=O)NCc2ccccc2)Cn2cnc(C(=O)NCc3ccc(Cl)cc3)c2C(=O)N1C1CC1 (configuration not stated),789 s
2,Cc1nc2cccnc2n1CC1CCCN(S(=O)(=O)c2ccc3c(c2)OCCO3)C1 (configuration not stated),672 s
3,Cc1cc(Cl)ccc1NC(=O)c1cc2n(n1)CCCC2,975 s
4,COc1ccccc1-c1noc2ncnc(N3CCN(c4ccccn4)CC3)c12,646 s
5,CC(C)(C)N(Cc1ccc2c(c1)OCO2)C(=O)/C=C\S(=O)c1ccccc1 (configuration not stated),902 s
6,CCOC(=O)c1[nH]c(C)c(CCC(=O)N2CCC(C(=O)N3CCOCC3)CC2)c1C,646 s
7,CCC(=O)NCc1ccc(-c2nc(C(C)C)cs2)cc1,873 s
8,CCn1cnc(S(=O)(=O)N2CCCC(C(=O)Nc3ccc(C)cc3)C2)c1 (configuration not stated),748 s
9,CCN(CC)S(=O)(=O)N1CCC(C(=O)NCCN2CCOCC2)CC1,579 s
10,CCn1c(C(=O)NC2CCCC2)cc2sc(Cl)cc21,1110 s
11,CNC(=O)CCC[C@@H]1[C@H]2CCCN3CCC[C@@H](CN1C(=O)CC(C)C)[C@@H]23,568 s
12,O=C(Cc1cccs1)N1CCN(c2ccc(=O)n(-c3ccc(Cl)cc3)n2)CC1,804 s
13,O=C1COc2cc(Cl)ccc2N1Cc1nc(-c2ccc3c(c2)OCO3)no1,1070 s
14,O=C(O)c1cccc2c1CCN2C(=O)Nc1ccc(F)cc1,782 s
15,c1ccc(-c2n[nH]c(CC3CCNC3)n2)cc1 (configuration not stated),570 s
16,Cc1ccc(N2C(=O)CN(S(=O)(=O)c3ccccc3)CC2(C)C(=O)NCc2ccc(F)cc2)cc1 (configuration not stated),875 s
17,O=C(NCCC1CCN(C(=O)Nc2ccc(F)cc2F)CC1)c1ccoc1,726 s
18,COc1ccc(C(=O)N2CCC3(CC2)N=C(c2ccc(Br)cc2)NO3)cc1OC,820 s
19,Cc1cc(F)ccc1NS(=O)(=O)c1cc2c(s1)CCN(C(=O)C1CC1)C2,839 s
20,CC(=O)Nc1ccc(NC(=O)[C@H]2C[C@H]3CCCN3[C@@]23C(=O)N(C)c2ccccc23)cc1,572 s
21,CC(C)CCNC(=O)c1cn(C)nc1S(=O)(=O)N1CCSCC1,900 s
22,Cc1cc(N2CCOCC2)n2nc(CN3CCC(Cc4ccccc4)CC3)nc2n1,641 s
23,Cc1ccc(S(=O)(=O)NCCCC(=O)NCc2ccccc2)cc1,732 s

row,Compound,RP-LC retention time
1,CCC1(C(=O)Nc2ccc(C)cc2)CCCCC(=O)N1 (configuration not stated),736 s
2,CN1CCn2cc(S(=O)(=O)Nc3ccc(F)c(F)c3)cc2C1=O,671 s
3,CCc1ccc(-n2c(CN3CCN(C(=O)NC(C)(C)C)CC3)nc3cccnc32)cc1,687 s
4,O=C1NCCCn2cc(S(=O)(=O)Nc3ccc(C(F)(F)F)cc3)cc21,728 s
5,Cc1oc(-c2[nH]ncc2C(=O)N2CCOCC2)cc1S(=O)(=O)Nc1ccccc1F,662 s
6,Fc1cc(F)cc(CN2CCCN(c3ncccc3-c3nc(C4CC4)no3)CC2)c1,720 s
7,O=C(NCc1ccccc1F)c1ccc(NC(=O)C2CCC2)cc1N1CCOCC1,853 s
8,CCOC(=O)c1cc(S(=O)(=O)N2CCCC2C(=O)Nc2ccccc2)cn1C (configuration not stated),903 s
9,O=C1CCCCC(Cc2ccccc2)(C(=O)O)N1 (configuration not stated),652 s
10,c1ccc(-c2nc3nccc(-c4ccncc4)n3n2)cc1,699 s
11,CC(=O)N1CCc2ccccc2C1C(=O)NCc1ccc(C(F)(F)F)cc1 (configuration not stated),838 s
12,CCOc1ccc(S(=O)(=O)N2CCCC(C(=O)Nc3ccc(OC)cc3OC)C2)cc1C (configuration not stated),1070 s
13,O=C(NCc1ccc(Br)cc1)C1CCCN(C(=O)c2cc(-c3ccncc3)n[nH]2)C1 (configuration not stated),623 s
14,COc1ccc(N2CCN(C(=O)c3cc4c(s3)CCN(C(C)=O)C4)CC2)cc1,674 s
15,Cc1nn(-c2ccc(C(=O)NCCCN3CCCC3=O)cc2)c2c1C(=O)CC(C)(C)C2,670 s
16,COc1ccc(NC(=O)N2[C@H]3CC[C@@H]2c2cnc(C)nc2C3)cc1F,671 s
17,O=C(NCCN1CCc2ccccc2C1)c1cccc(N2CCNC(c3ccccc3)C2)n1 (configuration not stated),576 s
18,Nc1nc(N2CCC3(CC2)OCCO3)ncc1S(=O)(=O)c1ccc(Cl)cc1,896 s
19,COc1ccccc1OCC1c2ccsc2CCN1C(=O)CN(C(C)=O)C(C)C (configuration not stated),773 s
20,COCCN1CCC2(CC1)CN(Cc1cc(C)ccc1C)Cc1ccccc1O2,718 s
21,CC(C)NC(=O)c1cccnc1N1CCSCC1,662 s
22,O=c1c2sccc2n(Cc2nc(-c3ccccc3)no2)c(=O)n1-c1ccccc1F,969 s
